Measured values: publication PMC8151835, “Phosphinotripeptidic Inhibitors of Leucylaminopeptidases” (International Journal of Molecular Sciences, 2021)
Read-outs that look alike come from different tables or passages of the source.

Tests used:
[1] = target: T1, SsLAP (porcine leucine aminopeptidase) (Sus scrofa, UniProt P28839); test: Inhibition of porcine kidney leucine aminopeptidase, L-Leu-p-nitroanilide hydrolysis, spectrophotometric at 405 nm; assay type: biochemical; settings: for Ki: Dixon method, substrate L-Leu-p-nitroanilide, 37 °C, pH 8.5, mixture of SR and SS isomers
T1 construct: Leucyl aminopeptidase (SsLAP) was isolated from the porcine kidney; from tissue; host or cells: porcine kidney
T1 sequence (P28839 1-519): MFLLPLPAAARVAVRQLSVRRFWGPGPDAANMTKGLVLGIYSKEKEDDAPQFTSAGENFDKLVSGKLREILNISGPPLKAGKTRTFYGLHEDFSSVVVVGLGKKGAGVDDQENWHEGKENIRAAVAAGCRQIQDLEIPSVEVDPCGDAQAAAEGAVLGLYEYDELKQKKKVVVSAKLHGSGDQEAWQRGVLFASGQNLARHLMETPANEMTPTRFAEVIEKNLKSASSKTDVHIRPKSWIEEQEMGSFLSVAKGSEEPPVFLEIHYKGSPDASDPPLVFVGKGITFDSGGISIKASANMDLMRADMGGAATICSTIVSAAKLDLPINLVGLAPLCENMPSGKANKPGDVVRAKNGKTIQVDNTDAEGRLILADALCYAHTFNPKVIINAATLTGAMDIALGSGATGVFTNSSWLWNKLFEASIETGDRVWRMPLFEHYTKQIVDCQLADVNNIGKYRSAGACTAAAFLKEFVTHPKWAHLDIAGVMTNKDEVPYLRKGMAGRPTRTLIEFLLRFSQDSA
Method: (§1) The inhibition type, mechanism, and inhibition constants (Ki) were determined using graphical methods (see Figure 3 and Figure 4 and Tables S1 and S2). The inhibition type was determined by the Lineweaver-Burk plot based on the results of the inhibitory effect of the compounds on the hydrolytic activity of L-Leu-p-nitroanilide. […] It should be remembered that inhibitor activity was appointed for the racemic mixtures. All investigated compound 1–9 contains only S isomer in the P2 position, whereas in the P1 position, both R and S isomers were possible. Comparing the obtained activities of the investigated compounds 1–9 toward mammalian and plant aminopeptidases allows us to make some general observations. […] Additionally, SsLAP has better tolerance for the residue in the P1 position, whereas HvLAP prefers hPhe residue in this position.
Leucyl aminopeptidase (SsLAP) was isolated from the porcine kidney modified method described by Spackman and Ledeme. […] KM values correlate well with those given in the works 0.77 mM [58, 59]. The purity of the enzyme was confirmed by electrophoresis.
The enzymatic reaction in the presence of SsLAP was carried out at 37 °C in 7.5 mM TEA-HCl buffer (pH 8.5), containing 5 mM NaCl. The progress of the reaction was monitored spectrophotometrically (UV-VIS Spectrophotometer Cintra 303, GBC Scientific Equipment Ltd., Victoria, Australia) at a wavelength of 405 nm against a control sample containing no enzyme. The attempting mixture contained: Solution of the synthetic substrate L-Leu-p-nitroanilide in DMSO (substrate concentration: 1.5 to 0.2 mM—final concentration), 7.5 mM TEA-HCl buffer (pH 8.5), containing 5 mM NaCl, the solution of the potential inhibitor in reaction buffer (concentration of compound depending on the braking force), and enzyme (0.005 mg of the sample).
(§2) Kinetic constants KM, Vmax, and KI and type of inhibition was determined by methods Lineweaver-Burk, Dixon, Hanes-Woolf, and method half-inhibitory concentration. In the calculation, linearization methods used weighted regression. The values (Ki) given in the tables are the values calculated by the Dixon method. The Ki values calculated with all the above-mentioned methods close to each other. All measurements were made in three-fold repetitions. The graphs show the average values of the three measurements and Sb.

[2] = target: HvLAP (aminopeptidase from barley seeds); test: Inhibition of barley seed aminopeptidase, L-Leu-p-nitroanilide hydrolysis, spectrophotometric at 405 nm; assay type: biochemical, Hordeum vulgare; settings: Dixon method; substrate L-Leu-p-nitroanilide; 37 °C, pH 7.5; mixture of SR and SS isomers
Method: as §1
The aminopeptidase from barley seeds (HvLAP) was isolated and purified according to the procedure described by Oszywa. […] The purity of the enzyme was confirmed by electrophoresis.
The enzymatic reaction in the presence of aminopeptidase from barley seeds (HvLAP) was carried out at 37 °C in 50 mM Tris-HCl buffer (pH 7.5), containing 50 mM NaCl, and 10 mM 2-mercaptoethanol. The progress of the reaction was monitored spectrophotometrically (UV-VIS Spectrophotometer Cintra 303, GBC Scientific Equipment Ltd., Victoria, Australia) at a wavelength of 405 nm against a control sample containing no enzyme. The attempting mixture contained: Solution of the synthetic substrate L-Leu-p-nitroanilide in DMSO (substrate concentration: 1.5 to 0.2 mM—final concentration), 50 mM Tris-HCl buffer (pH 7.5), containing 50 mM NaCl, and 10 mM 2-mercaptoethanol, the solution of the potential inhibitor in reaction buffer (concentration of compound depending on the braking force), and enzyme (0.028 mg of the sample).
as §2

[3] = target: T1, SsLAP (porcine leucine aminopeptidase); set-up: method as in PMID 2568128, PMID 7126535; settings: read-out: KM given in the works; cited from earlier work
[4] = tested on: HvLAP (aminopeptidase from barley seeds); set-up: method as in PMID 23434924, doi:10.1007/s11738-015-1789-8; settings: read-out: KM of the isolated enzyme on the synthetic substrate; cited from earlier work

Compound | Ki [1] [µM] | Ki [2] [µM] | melting point | inhibits SsLAP stronger than HvLAP (selectivity) ([1]; SsLAP over HvLAP) [times] | Km ([1]; SsLAP isolated from porcine kidney, read-out: KM of the isolated enzyme on the synthetic substrate) [µM] | Km [3] [µM] | Km [4] [µM]
COC(=O)CCP(=O)(O)C(CC(C)C)NC(=O)[C@@H](N)CCSC (stereo partly drawn) [Compound 2, Methyl 3-[(1-((S)-2-amino-4-(methylthio)butanamido)-3-methylbutyl)phosphinyl]propanoate] | 1090 ± 73 | 649 ± 43 | 183 to 184 °C |  |  |  | 
COC(=O)CCP(=O)(O)C(CCc1ccccc1)NC(=O)[C@@H](N)Cc1ccc(C(=O)c2ccccc2)cc1 (stereo partly drawn) [Compound 8, Methyl 3-[(1-((S)-2-amino-3-(4-benzoylphenyl)propanamido)-3-phenylpropyl)phosphinyl]-propanoate] | 95 ± 9 | 159 ± 25 | 134 to 140 °C (dec.) |  |  |  | 
COC(=O)CCP(=O)(O)C(CC(C)C)NC(=O)[C@@H](N)Cc1ccc(C(=O)c2ccccc2)cc1 (stereo partly drawn) [Compound 9, Methyl 3-[(1-((S)-2-amino-3-(4-benzoylphenyl)propanamido)-3-methylbutyl)phosphinyl]-propanoate] | 507 ± 31 | 797 ± 76 | 124 to 126 °C |  |  |  | 
COC(=O)CCP(=O)(O)C(CC(C)C)NC(=O)[C@@H](N)Cc1ccc(-c2ccccc2)cc1 (stereo partly shown) [Compound 7] | 130 ± 14 | 1300 ± 84 | 150 to 152 °C | ~10 |  |  | 
CSCC[C@H](N)C(=O)NC(CC(C)C)P(=O)(O)CCC(=O)O (stereo partly drawn) [Compound 5, 3-[(1-((S)-2-Amino-4-(methylthio)butanamido)-3-methylbutyl)phosphinyl]propanoic acid] | 3620 ± 433 | 1040 ± 102 | 218 to 222 °C |  |  |  | 
CSCC[C@H](N)C(=O)NC(CCc1ccccc1)P(=O)(O)CCC(=O)O (stereo partly shown) [Compound 4] | 229 ± 40 | 228 ± 10 | 180 to 185 °C |  |  |  | 
COC(=O)CCP(=O)(O)C(CCc1ccccc1)NC(=O)[C@@H](N)CCSC (stereo partly drawn) [Compound 1, Methyl 3-[(1-((S)-2-amino-4-(methylthio)butanamido)-3-phenylpropyl)phosphinyl]propanoate] | 532 ± 46 | 38 ± 9 | 161 to 164 °C |  |  |  | 
COC(=O)CCP(=O)(O)C(CCc1ccccc1)NC(=O)[C@@H](N)Cc1ccc(-c2ccccc2)cc1 (stereo partly drawn) [Compound 6, Methyl 3-[(1-((S)-3-([1,1′-biphenyl]-4-yl)-2-aminopropanamido)-3-phenylpropyl)phosphinyl]-propanoate] | 175 ± 3 | 878 ± 70 | 126 to 128 °C |  |  |  | 
CC(C)C[C@H](N)C(=O)Nc1ccc([N+](=O)[O-])cc1 [L-Leu-pNA, L-leucine-p-nitroanilide] |  |  |  |  | 860 | 770 | 550
COC(=O)CCP(=O)(O)C(CC(C)C)NC(=O)[C@@H](N)CCO (stereo partly shown) [Compound 3] | 14 ± 1 | 121 ± 19 | 174 to 176 °C |  |  |  | 
